Test results reported in US8236792B2, “Substituted pyrrolidine amides as modulators of the histamine H3 receptor” (Janssen Pharmaceutica NV, priority 2008, dated 2012).

Target: human H3 receptor (Homo sapiens, UniProt Q9Y5N1)
Test: H3 Receptor Binding (Human) Method 2, [125I]-iodoproxyfan competitive radioligand binding
Parameters: expressed in transfected cells
Conditions: not given

Chain of human H3 receptor (Q9Y5N1 whole entry): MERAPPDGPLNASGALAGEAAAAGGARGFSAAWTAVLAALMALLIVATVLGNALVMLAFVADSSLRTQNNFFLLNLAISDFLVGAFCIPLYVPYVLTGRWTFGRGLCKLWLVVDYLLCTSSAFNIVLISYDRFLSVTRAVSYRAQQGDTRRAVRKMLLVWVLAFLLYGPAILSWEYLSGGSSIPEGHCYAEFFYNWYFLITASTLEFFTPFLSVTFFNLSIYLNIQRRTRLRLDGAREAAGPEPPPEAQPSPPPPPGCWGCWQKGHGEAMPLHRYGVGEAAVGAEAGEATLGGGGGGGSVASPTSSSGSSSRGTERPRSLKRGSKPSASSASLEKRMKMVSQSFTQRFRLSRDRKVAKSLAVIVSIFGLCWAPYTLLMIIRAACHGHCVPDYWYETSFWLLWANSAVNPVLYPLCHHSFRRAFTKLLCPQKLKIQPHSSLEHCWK

Ki [nM] | SMILES
5 | O=C([C@H]1C[C@H](Oc2ccccn2)CN1)N1CCCN(C2CCC2)CC1 [Example 98, (2R,4S)-2-(4-Cyclobutyl-[1,4]diazepane-1-carbonyl)-4-(pyridin-2-yloxy)-pyrrolidine]
379 | CC(=O)N1C[C@H](Oc2cccc(F)c2)C[C@H]1C(=O)N1CCCN(C2CCC2)CC1 [Example 129, (2S,4R)-1-[2-(4-Cyclobutyl-[1,4]diazepane-1-carbonyl)-4-(3-fluoro-phenoxy)-pyrrolidin-1-yl]-ethanone]

Same assay, conditions: Method 2; SK-N-MC cell membranes; [125I]-iodoproxyfan 1 nM; apparent Ki; free base or hydrochloride salt; average of results; read-out: Human H3 Ki

Ki [nM] | SMILES
11 | O=C(N1CCCN(C2CCC2)CC1)[C@@]1(Cc2ccccc2)CCCN1 [Example 171, (2S)-(2-Benzyl-pyrrolidin-2-yl)-(4-cyclobutyl-[1,4]diazepan-1-yl)-methanone]

Same assay, conditions: read-out: Human H3 Ki

Ki [nM] | SMILES
12 | COc1cccc(O[C@H]2C[C@H](C(=O)N3CCCN(C4CCC4)CC3)N(C(=O)OC(C)(C)C)C2)c1 [Example 26, (2R,4S)-2-(4-Cyclobutyl-[1,4]diazepane-1-carbonyl)-4-(3-methoxy-phenoxy)-pyrrolidine-1-carboxylic acid tert-butyl ester]
126 | CC(C)(C)OC(=O)N1C[C@@H](Oc2ccccc2)C[C@H]1C(=O)N1CCCN(C2CCC2)CC1 [Example 14, (2S,4S)-2-(4-Cyclobutyl-[1,4]diazepane-1-carbonyl)-4-phenoxy-pyrrolidine-1-carboxylic acid tert-butyl ester]
2110 | CC(=O)N1C[C@H](Cc2ccc(F)cc2)C[C@H]1C(=O)N1CCCN(C2CCC2)CC1 [Example 181]
160 | CC(C)(C)OC(=O)N1C[C@H](Oc2ccc(C#N)cc2)C[C@@H]1C(=O)N1CCCN(C2CCC2)CC1 [Example 60, (2R,4R)-4-(4-Cyano-phenoxy)-2-(4-cyclobutyl-[1,4]diazepane-1-carbonyl)-pyrrolidine-1-carboxylic acid tert-butyl ester]
8 | Cc1ccc(O[C@H]2C[C@H](C(=O)N3CCCN(C4CCC4)CC3)N(C(=O)OC(C)(C)C)C2)cc1 [Example 29, (2R,4S)-2-(4-Cyclobutyl-[1,4]diazepane-1-carbonyl)-4-p-tolyloxy-pyrrolidine-1-carboxylic acid tert-butyl ester]
18 | CC(C)C(=O)N1C[C@@H](Oc2cccc(F)c2)C[C@@H]1C(=O)N1CCCN(C2CCC2)CC1 [Example 123, (2R,4S)-1-[2-(4-Cyclobutyl-[1,4]diazepane-1-carbonyl)-4-(3-fluoro-phenoxy)-pyrrolidin-1-yl]-2-methyl-propan-1-one]
957 | CC(C)(C)OC(=O)N1CC[C@@H](Oc2ccc(F)cc2)[C@H]1C(=O)N1CCCN(C2CCC2)CC1 [Example 144, (2S,3R)-2-(4-Cyclobutyl-[1,4]diazepane-1-carbonyl)-3-(4-fluoro-phenoxy)-pyrrolidine-1-carboxylic acid tert-butyl ester]
1160 | CC(=O)N1C[C@H](Cc2cccc(F)c2)C[C@H]1C(=O)N1CCCN(C2CCC2)CC1 [Example 182]
53 | CC(C)(C)OC(=O)N1C[C@@H](O)C[C@@H]1C(=O)N1CCCN(C2CCC2)CC1 [Example 4, (2R,4S)-2-(4-Cyclobutyl-[1,4]diazepane-1-carbonyl)-4-hydroxy-pyrrolidine-1-carboxylic acid tert-butyl Ester]
72 | CC(C)(C)OC(=O)N1C[C@H](Cc2cccc(F)c2)C[C@H]1C(=O)N1CCCN(C2CCC2)CC1 [Example 175, (2S,4R)-2-(4-Cyclobutyl-[1,4]diazepane-1-carbonyl)-4-(3-fluoro-benzyl)-pyrrolidine-1-carboxylic acid tert-butyl ester]
53 | CC(C)(C)OC(=O)N1C[C@H](Cc2ccc(F)cc2)C[C@H]1C(=O)N1CCCN(C2CCC2)CC1 [Example 174, (2S,4R)-2-(4-Cyclobutyl-[1,4]diazepane-1-carbonyl)-4-(4-fluoro-benzyl)pyrrolidine-1-carboxylic acid tert-butyl ester]
5 | CC(C)(C)OC(=O)N1C[C@H](Oc2ccccn2)C[C@H]1C(=O)N1CCCN(C2CCC2)CC1 (stereo in doubt) [Example 50, (2S,4R)-2-(4-Cyclobutyl-[1,4]diazepane-1-carbonyl)-4-(pyridin-2-yloxy)-pyrrolidine-1-carboxylic acid tert-butyl ester]
10 | CC(C)(C)OC(=O)N1C[C@@H](Oc2ccc(C#N)cc2)C[C@@H]1C(=O)N1CCCN(C2CC2)CC1 [Example 32, (2R,4S)-4-(4-Cyano-phenoxy)-2-(4-cyclopropyl-[1,4]diazepane-1-carbonyl)-pyrrolidine-1-carboxylic acid tert-butyl ester]
17 | CC(C)(C)OC(=O)N1C[C@@H](Sc2ccc(F)cc2)C[C@@H]1C(=O)N1CCCN(C2CCC2)CC1 [Example 61, (2R,4S)-2-(4-Cyclobutyl-[1,4]diazepane-1-carbonyl)-4-(4-fluoro-phenylsulfanyl)-pyrrolidine-1-carboxylic acid tert-butyl ester]
50 | O=C([C@H]1C[C@@H](O)CN1C(=O)OCc1ccccc1)N1CCCN(C2CCC2)CC1 [Example 9, (2R,4R)-2-(4-Cyclobutyl-[1,4]diazepane-1-carbonyl)-4-hydroxy-pyrrolidine-1-carboxylic Acid Benzyl Ester]
60 | CC(C)(C)OC(=O)N1CCC[C@]1(Cc1ccc(C(F)(F)F)cc1)C(=O)N1CCCN(C2CCC2)CC1 [Example 166, (2S)-2-(4-Cyclobutyl-[1,4]diazepane-1-carbonyl)-2-(4-trifluoromethyl-benzyl)-pyrrolidine-1-carboxylic acid tert-butyl ester]
3 | CCC(=O)N1C[C@@H](Oc2cccc(F)c2)C[C@@H]1C(=O)N1CCCN(C2CCC2)CC1 [Example 125, (2R,4S)-1-[2-(4-Cyclobutyl-[1,4]diazepane-1-carbonyl)-4-(3-fluoro-phenoxy)-pyrrolidin-1-yl]-propan-1-one]
4 | O=C([C@H]1C[C@H](Oc2ccc(C(F)(F)F)cc2)CN1)N1CCCN(C2CCC2)CC1 [Example 75, (2R,4S)-4-(4-Trifluoromethyl-phenoxy)-2-(4-cyclobutyl-[1,4]diazepane-1-carbonyl)-pyrrolidine]
40 | O=C([C@H]1C[C@H](Oc2ccc(F)cc2)CN1)N1CCN(C2CCCC2)CC1 [Example 80, (2R,4S)-2-(4-Cyclopentyl-piperazine-1-carbonyl)-4-(4-fluoro-phenoxy)-pyrrolidine]
299 | O=C([C@@H]1C[C@@H](Cc2ccc(F)cc2)CN1)N1CCCN(C2CCC2)CC1 [Example 178, (2S,4R)-(4-Cyclobutyl-[1,4]diazepan-1-yl)-[4-(4-fluoro-benzyl)-pyrrolidin-2-yl]-methanone]
1300 | CN(C)[C@H]1CCN(C(=O)[C@H]2C[C@H](Oc3cccc(F)c3)CN2)C1 [Example 85]
6 | CC(C)(C)OC(=O)N1C[C@@H](OCc2ccc(F)cc2)C[C@@H]1C(=O)N1CCCN(C2CCC2)CC1 [Example 148, (2R,4S)-2-(4-Cyclobutyl-[1,4]diazepane-1-carbonyl)-4-(4-fluoro-benzyloxy)-pyrrolidine-1-carboxylic acid tert-butyl ester]
11 | CC(C)(C)OC(=O)N1C[C@@H](Oc2ccsc2)C[C@@H]1C(=O)N1CCCN(C2CCC2)CC1 [Example 54, (2R,4S)-2-(4-Cyclobutyl-[1,4]diazepane-1-carbonyl)-4-(thiophen-3-yloxy)-pyrrolidine-1-carboxylic acid tert-butyl ester]
